Measured values: patent US20070093520A1, “Method of treatment of diarrhea-predominant irritable bowel syndrome in a subject” (priority 2005, published 2007)

Test system: diarrhea-predominant IBS subjects
Experiment: 3007 Study: open-label 52-week safety study, adverse events and withdrawals
Settings: Study 3007; for Number of subjects who died / Primary reason for withdrawal: Adverse event and lack of efficacy / Primary reason for withdrawal: Baseline complaint/adverse event / Primary reason for withdrawal: Lack of efficacy: all enrolled

Cc1nccn1C[C@H]1CCc2c(c3cccc4c3n2CCC4)C1=O [cilansetron, (R)-(−)-4,5,6,8,9,10-hexahydro-10-[(2-methyl-1H-imidazol-1-yl)methyl]-11H-pyrido-[3,2,1-jk]-carbazol-11-one]
SAE: Hepatitis NOS (C/C): 1 (<1%) n (%)
SAE: Hepatobiliary Disorders (C/C): 2 (<1%) n (%)
SAE: Immune System Disorders (C/C): 0 n (%)
SAE: Infections and Infestations (C/C): 1 (<1%) n (%)
SAE: Injury, Poisoning and Procedural Complications (C/C): 2 (<1%) n (%)
SAE: Irritable Bowel Syndrome Aggravated (C/C): 1 (<1%) n (%)
SAE: Leiomyoma NOS (C/C): 1 (<1%) n (%)
SAE: Loss of Consciousness (C/C): 1 (<1%) n (%)
SAE: Myocardial Infarction (C/C): 1 (<1%) n (%)
SAE: Neoplasms Benign, Malignant and Unspecified (Incl Cysts and Polyps) (C/C): 3 (1%) n (%)
SAE: Nervous System Disorders (C/C): 2 (<1%) n (%)
SAE: Non-Accidental Overdose (C/C): 1 (<1%) n (%)
SAE: Ovarian Cancer NOS* (C/C): 1 (<1%) n (%)
SAE: Ovarian Cystadenofibroma* (C/C): 0 n (%)
SAE: Pregnancy NOS* (C/C): 1 (<1%) n (%)
SAE: Pregnancy, Puerperium and Perinatal Conditions (C/C): 1 (<1%) n (%)
SAE: Psychiatric Disorders (C/C): 0 n (%)
SAE: Psychotic Disorder NOS (C/C): 0 n (%)
SAE: Renal and Urinary Disorders (C/C): 1 (<1%) n (%)
SAE: Reproductive System and Breast Disorders (C/C): 2 (<1%) n (%)
SAE: Respiratory, Thoracic and Mediastinal Disorders (C/C): 0 n (%)
SAE: Sinusitis Acute NOS (C/C): 0 n (%)
SAE: Status Epilepticus (C/C): 1 (<1%) n (%)
SAE: Suicidal Ideation (C/C): 0 n (%)
SAE: Supraventricular Tachycardia (C/C): 0 n (%)
SAE: Urinary Tract Infection NOS (C/C): 0 n (%)
SAE: Uterine Polyp NOS* (C/C): 1 (<1%) n (%)
SAE: Vaginal Cyst* (C/C): 1 (<1%) n (%)
TEAEs that led to permanent discontinuation of study medication (C/C): 13%
Total Number of Subjects with at Least One Serious Adverse Event (C/C): 19 (7%) n (%)
subjects with at least one TEAE (C/C): 86%
subjects with at least one treatment-emergent SAE (C/C): 7%
withdrawal for AE (C/C): 13%
withdrawal for lack of efficacy (C/C): 17%
Number of deaths (C/C (N = 257)): 0 n (%)
Number of subjects who permanently discontinued study medication due to a TEAE (as reported on the AE CRF) (C/C (N = 257)): 33 (13) n (%)
Number of subjects with at least one AE of special interest (C/C (N = 257)): 186 (72) n (%)
Number of subjects with at least one SAE (C/C (N = 257)): 19 (7) n (%)
Number of subjects with at least one TEAE (C/C (N = 257)): 220 (86) n (%)
Number of subjects with at least one TEAE leading to dose reduction (C/C (N = 257)): 7 (3) n (%)
Number of subjects with at least one related TEAE (C/C (N = 257)): 151 (59) n (%)
Number of subjects with at least one severe TEAE (C/C (N = 257)): 50 (19) n (%)
Number of subjects who died (C/C): 0 n (%)
Primary reason for withdrawal: Adverse event and lack of efficacy (C/C): 23 (9) n (%)
Primary reason for withdrawal: Baseline complaint/adverse event (C/C): 10 (4) n (%)
Primary reason for withdrawal: Lack of efficacy (C/C): 20 (8) n (%)
Number of deaths (Overall (N = 536)): 0 n (%)
Number of subjects who permanently discontinued study medication due to a TEAE (as reported on the AE CRF) (Overall (N = 536)): 83 (15) n (%)
Number of subjects with at least one AE of special interest (Overall (N = 536)): 371 (69) n (%)
Number of subjects with at least one SAE (Overall (N = 536)): 29 (5) n (%)
Number of subjects with at least one TEAE (Overall (N = 536)): 437 (82) n (%)
Number of subjects with at least one TEAE leading to dose reduction (Overall (N = 536)): 11 (2) n (%)
Number of subjects with at least one related TEAE (Overall (N = 536)): 301 (56) n (%)
Number of subjects with at least one severe TEAE (Overall (N = 536)): 94 (18) n (%)
Number of subjects who died (Overall): 0 n (%)
Primary reason for withdrawal: Adverse event and lack of efficacy (Overall): 57 (10) n (%)
Primary reason for withdrawal: Baseline complaint/adverse event (Overall): 24 (4) n (%)
Primary reason for withdrawal: Lack of efficacy (Overall): 45 (8) n (%)
SAE: Abdominal Pain Upper (P/C): 0 n (%)
SAE: Adenomyosis* (P/C): 0 n (%)
SAE: Angina Pectoris (P/C): 0 n (%)
SAE: Appendicitis (P/C): 0 n (%)
SAE: Asthma NOS (P/C): 1 (<1%) n (%)
SAE: Benign Ovarian Tumour* (P/C): 1 (<1%) n (%)
SAE: Bladder Prolapse (P/C): 1 (<1%) n (%)
SAE: Bone Neoplasm Malignant (P/C): 0 n (%)
SAE: Breast Cancer NOS* (P/C): 2 (1%) n (%)
SAE: Bronchopneumonia NOS (P/C): 1 (<1%) n (%)
SAE: Calculus Ureteric (P/C): 0 n (%)
SAE: Cardiac Disorders (P/C): 1 (<1%) n (%)
SAE: Chest Pain (P/C): 1 (<1%) n (%)
SAE: Cholelithiasis (P/C): 0 n (%)
SAE: Colitis Ischaemic (P/C): 1 (<1%) n (%)
SAE: Depression (P/C): 1 (<1%) n (%)
SAE: Endometriosis* (P/C): 0 n (%)
SAE: Fibroma NOS (P/C): 1 (<1%) n (%)
SAE: Food Allergy (P/C): 1 (<1%) n (%)
SAE: Gastritis NOS (P/C): 0 n (%)
SAE: Gastroenteritis NOS (P/C): 0 n (%)
SAE: Gastrointestinal Disorders (P/C): 1 (<1%) n (%)
SAE: General Disorders and Administration Site Conditions (P/C): 1 (<1%) n (%)
SAE: Hallucination NOS (P/C): 1 (<1%) n (%)
SAE: Hallucination, Auditory (P/C): 1 (<1%) n (%)
SAE: Heat Exhaustion (P/C): 0 n (%)
SAE: Hepatitis NOS (P/C): 0 n (%)
